According to patent publication US20240261294A1, “METHOD FOR TREATING IDH INHIBITOR-RESISTANT SUBJECTS” (Eli Lilly and Company, priority 2021, published 2024):
Changes are numbered by the printed parent chain.

How the values were obtained:
IDH2 R140Q_G260A cis = biological target: T1, IDH2 R140Q_G260A cis (Homo sapiens, UniProt P48735, G260A/R140Q); test: Inhibition of 2-HG production in IDH2 mutant U-87 MG cells; type: cell-based; settings: 16 hours incubation, 50K cells/well, 100 μl media/well, read-out: Relative IC50 (nM) Mean, inhibition of 2-HG production
T1 construct: expressed in transfected cells; host or cells: U-87 MG
T1 sequence (P48735 40-452 R140Q/G260A): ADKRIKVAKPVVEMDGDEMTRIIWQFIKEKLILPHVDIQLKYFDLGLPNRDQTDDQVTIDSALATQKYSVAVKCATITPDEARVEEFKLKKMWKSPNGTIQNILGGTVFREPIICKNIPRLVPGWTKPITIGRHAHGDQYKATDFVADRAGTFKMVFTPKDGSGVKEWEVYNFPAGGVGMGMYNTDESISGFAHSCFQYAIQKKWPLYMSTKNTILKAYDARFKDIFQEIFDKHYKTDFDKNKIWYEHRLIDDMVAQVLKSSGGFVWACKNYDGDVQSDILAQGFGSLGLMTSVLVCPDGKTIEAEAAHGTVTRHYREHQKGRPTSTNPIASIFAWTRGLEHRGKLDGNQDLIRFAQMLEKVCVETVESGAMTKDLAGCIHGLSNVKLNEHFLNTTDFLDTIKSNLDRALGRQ

IDH2 R140L_Q316E cis = biological target: T2, IDH2 R140L_Q316E cis (Homo sapiens, UniProt P48735, Q316E/R140L); test: as above; type: cell-based; settings: 16 hours incubation, 50K cells/well, 100 μl media/well, read-out: Relative IC50 (nM) Mean, inhibition of 2-HG production
T2 construct: expressed in transfected cells; host or cells: U-87 MG
T2 sequence (P48735 40-452 R140L/Q316E): T1 sequence (P48735 40-452 R140Q/G260A) with Q101L, A221G, Q277E

C=CC(=O)N1CCN([C@@H](CC2CC2)c2ccc([C@H](C)Nc3ncc4c(n3)N(CC)C(=O)OC4)cc2)CC1 [Compound A, 7-[[(1S)-1-[4-[(1S)-2-cyclopropyl-1-(4-prop-2-enoylpiperazin-1-yl)ethyl]phenyl]ethyl]amino]-1-ethyl-4H-pyrimido[4,5-d][1,3]oxazin-2-one]
IC50 (IDH2 R140Q_G260A cis): 7 nM | IC50 (IDH2 R140L_Q316E cis): 145 nM
